The record followed here is ChEMBL document CHEMBL6114992, “Design, synthesis, biological evaluation, and mechanism of action of new pyrazines as anticancer agents in vitro and in vivo” (Bioorg Med Chem, 2025).

What all share (type): functional, cell-based
For assay [1], the system named is THP-1. The assay can be described thus: Antiproliferative activity against human THP-1 cells assessed as inhibition of cell growth incubated for 72 hrs by MTT assay. Particulars: THP-1, 72 h. (Formazan colour is commonly taken as a measure of viable cells.)
For assay [2], the system named is KG-1. Kind of assay: Antiproliferative activity against human KG-1 cells assessed as inhibition of cell growth incubated for 72 hrs by MTT assay. Particulars: KG-1, 72 h.
The test system of assay [3] is SK-OV-3. The assay can be described thus: Antiproliferative activity against human SK-OV-3 cells assessed as inhibition of cell growth incubated for 72 hrs by MTT assay. Particulars: SK-OV-3, 72 h.
Assay [4] is described as follows: Antiproliferative activity against human SK-OV-3/Taxol cells assessed as inhibition of cell growth incubated for 72 hrs by MTT assay. The note with it: SK-OV-3, 72 h.
For assay [5], the system named is U-937. The assay can be described thus: Antiproliferative activity against human U-937 cells assessed as inhibition of cell growth incubated for 72 hrs by MTT assay. Particulars: U-937, 72 h.

On to `O=C(/C=C/c1ccc(F)cc1)c1cnccn1`, for which the IC50 in assay [1], in assay [2], in assay [3], in assay [4] and in assay [5] was greater than 50 µM each time.

In the case of `Cc1cccc(/C=C/C(=O)c2cnccn2)c1`, the IC50 in assay [1] is 20.3 µM; in assay [2], 9.84 µM; in assay [3], 28.5 µM; in assay [4], 25.9 µM; in assay [5] it was 16.3 µM.

On to `CCc1nccnc1C(=O)/C=C/c1ccc(C)cc1`, for which the IC50 was 10.5 µM in assay [1]; 10 µM in assay [2]; 6.26 µM in assay [3]; 7.33 µM in assay [4]; 9.32 µM in assay [5].

Turning to `CCc1nccnc1C(=O)/C=C/c1cc2ccccc2o1`, the IC50 was found to be 12.9 µM in assay [1]; 22.5 µM in assay [2]; 17.3 µM in assay [3]; 16.4 µM in assay [4]; 17.4 µM in assay [5].

Take `Cc1nccnc1C(=O)/C=C/c1ccc(F)cc1F`: the IC50 came to 17.6 µM in assay [1]; 6.15 µM in assay [2]; 3.33 µM in assay [3]; 2.99 µM in assay [4]; 13.5 µM in assay [5].

In the case of `CCc1nccnc1C(=O)/C=C/c1ccc(C(C)(C)C)cc1`, the IC50 in assay [1] worked out at 10.2 µM; in assay [2], 22.5 µM; in assay [3], 11.2 µM; in assay [4], 12.2 µM; in assay [5], 15 µM.

With `CC(C)(C)c1ccc(/C=C/C(=O)c2cnccn2)cc1`, the IC50 in assay [1] was 16 µM; in assay [2] it was 13.4 µM; in assay [3], 15.5 µM; in assay [4], 12.5 µM; in assay [5], 13.7 µM.

On to `O=C(/C=C/c1ccc(-c2ccccc2)cc1)c1cnccn1`, for which the IC50 in assay [1] was greater than 50 µM; in assay [2], greater than 50 µM; in assay [3], 16.6 µM; in assay [4], 16.3 µM; in assay [5], 31.8 µM.

For `Cc1nccnc1C(=O)/C=C/c1ccc(Br)cc1`, the IC50 is 31.1 µM in assay [1]; 20.9 µM in assay [2]; 12.7 µM in assay [3]; 13.7 µM in assay [4]; 11.3 µM in assay [5].

Regarding `Cc1nccnc1C(=O)/C=C/c1cc2ccccc2o1`, the IC50 in assay [1] was determined as 1.9 µM; in assay [2] it was 3.3 µM; in assay [3], 4.63 µM; in assay [4] it was 1.74 µM; in assay [5], 2.93 µM.

Regarding `Cc1nccnc1C(=O)/C=C/c1ccc2c(c1)OC(F)(F)O2`, the IC50 in assay [1] turned out to be 5.89 µM; in assay [2], 6.52 µM; in assay [3] it was 5.1 µM; in assay [4] it was 6.11 µM; in assay [5] it was 3.63 µM.

For `CCN(CC)c1ccc(/C=C/C(=O)c2nccnc2C)cc1`, the IC50 in assay [1] stood at 8.07 µM; in assay [2], 7.14 µM; in assay [3], 3.39 µM; in assay [4], 8.29 µM; in assay [5], 6.4 µM.

For `CCc1nccnc1C(=O)/C=C/c1cccc([N+](=O)[O-])c1`, the IC50 in assay [1] was 1.56 µM; in assay [2], 2.16 µM; in assay [3], 3.5 µM; in assay [4], 2.67 µM; in assay [5] it was 1.58 µM.

For `CCc1nccnc1C(=O)/C=C/C=C/c1ccc(F)cc1`, the IC50 came to 7.16 µM in assay [1]; 6.91 µM in assay [2]; 7.98 µM in assay [3]; 8.25 µM in assay [4]; 5.25 µM in assay [5].

As to `Cc1nccnc1C(=O)/C=C/C=C/c1ccc(F)cc1`, the IC50 in assay [1] came out at 45.4 µM; in assay [2], 27.4 µM; in assay [3] it was 10.8 µM; in assay [4], 11.4 µM; in assay [5] it was 10.3 µM.

For `CCc1nccnc1C(=O)/C=C/c1cccc(Cl)c1`, the IC50 in assay [1] was found to be 5.95 µM; in assay [2], 3.66 µM; in assay [3], 4.69 µM; in assay [4], 5.11 µM; in assay [5], 1.23 µM.

In the case of `Cc1cccc(/C=C/C(=O)c2nccnc2C)c1`, the IC50 in assay [1] came out at 5 µM; in assay [2], 5.43 µM; in assay [3] it was 2.37 µM; in assay [4], 1.55 µM; in assay [5] it was 3.37 µM.

On to `CCc1nccnc1C(=O)/C=C/c1ccc(Cl)cc1`, for which the IC50 came out at 4.7 µM in assay [1]; 3.67 µM in assay [2]; 7.08 µM in assay [3]; 6.72 µM in assay [4]; 2.3 µM in assay [5].

Take `CCc1nccnc1C(=O)/C=C/c1cccc(C#N)c1`: the IC50 in assay [1] was 0.98 µM; in assay [2], 3.91 µM; in assay [3] it was 2.53 µM; in assay [4], 2.89 µM; in assay [5], 0.62 µM.

Consider `CCc1nccnc1C(=O)/C=C/c1cccc(Br)c1`, for which the IC50 in assay [1] amounted to 6.69 µM; in assay [2], 9.32 µM; in assay [3], 3.23 µM; in assay [4] it was 4.7 µM; in assay [5] it was 3.59 µM.

Take `CCc1nccnc1C(=O)/C=C/c1cc2c(cc1[N+](=O)[O-])OCO2`: the IC50 in assay [1] turned out to be 3.19 µM; in assay [2] it was 9.24 µM; in assay [3], 4.29 µM; in assay [4], 4.75 µM; in assay [5], 3.39 µM.

With `Cc1nccnc1C(=O)/C=C/c1cccc(Cl)c1`, the IC50 is 1.35 µM in assay [1]; 2.15 µM in assay [2]; 2.02 µM in assay [3]; 1.57 µM in assay [4]; 1.6 µM in assay [5].

For `CCc1nccnc1C(=O)/C=C/c1ccc(OC)c(OC)c1`, the IC50 was determined as 8.36 µM in assay [1]; 9.45 µM in assay [2]; 6.71 µM in assay [3]; 7.92 µM in assay [4]; 7.95 µM in assay [5].

As for `CCc1nccnc1C(=O)/C=C/c1ccc(Br)cc1`, the IC50 in assay [1] is 5.34 µM; in assay [2], 9.31 µM; in assay [3], 3.88 µM; in assay [4], 5.93 µM; in assay [5] it was 1.93 µM.

In the case of `O=C(/C=C/C=C/c1ccccc1)c1cnccn1`, the IC50 was 14.1 µM in assay [1]; 22.3 µM in assay [2]; greater than 50 µM in assay [3]; greater than 50 µM in assay [4]; 22.4 µM in assay [5].

As for `O=C(/C=C/c1ccc(Cl)cc1)c1cnccn1`, the IC50 came to 10.2 µM in assay [1]; 12.3 µM in assay [2]; 9.91 µM in assay [3]; 10.4 µM in assay [4]; 11.5 µM in assay [5].

In the case of `CCc1nccnc1C(=O)/C=C/c1csc2ccccc12`, the IC50 in assay [1] was found to be 2.39 µM; in assay [2], 14.4 µM; in assay [3] it was 2.06 µM; in assay [4], 2.29 µM; in assay [5], 1.76 µM.

With `Cc1nccnc1C(=O)/C=C/c1cccc(Br)c1`, the IC50 stood at 1.64 µM in assay [1]; 0.08 µM in assay [2]; 1.63 µM in assay [3]; 1.46 µM in assay [4]; 1.58 µM in assay [5].

`Cc1nccnc1C(=O)/C=C/c1ccccc1`: the IC50 in assay [1] came to 1.79 µM; in assay [2], 1.64 µM; in assay [3] it was 5.17 µM; in assay [4], 5.04 µM; in assay [5] it was 5.43 µM.

For `CCc1nccnc1C(=O)/C=C/c1cccc(C)c1`, the IC50 in assay [1] is 7.78 µM; in assay [2] it was 10.3 µM; in assay [3], 4.52 µM; in assay [4], 5.6 µM; in assay [5] it was 6.89 µM.

`CCc1nccnc1C(=O)/C=C/c1ccccc1N1CCOCC1`: the IC50 in assay [1] amounted to 3.44 µM; in assay [2], 5.46 µM; in assay [3] it was 4.05 µM; in assay [4], 3.96 µM; in assay [5], 4.45 µM.

Turning to `CCc1nccnc1C(=O)/C=C/c1ccccc1Cl`, the 50% inhibitory concentration (IC50) in assay [1] was determined as 4.45 µM; in assay [2], 3.17 µM; in assay [3] it was 5.06 µM; in assay [4], 5.58 µM; in assay [5], 5.91 µM.

Take `Cc1nccnc1C(=O)/C=C/c1ccc(C(F)(F)F)cc1`: the IC50 stood at 5.23 µM in assay [1]; 5.66 µM in assay [2]; 7.57 µM in assay [3]; 8.99 µM in assay [4]; 3.23 µM in assay [5].

Turning to `O=C(/C=C/c1cccc(Br)c1)c1cnccn1`, the IC50 amounted to 11 µM in assay [1]; 23.4 µM in assay [2]; 13.5 µM in assay [3]; 17 µM in assay [4]; 8.19 µM in assay [5].

On to `CCc1nccnc1C(=O)/C=C/c1cccs1`, for which the IC50 was determined as 10.3 µM in assay [1]; 19.6 µM in assay [2]; 9.89 µM in assay [3]; 10.9 µM in assay [4]; 10 µM in assay [5].

As to `Cc1nccnc1C(=O)/C=C/c1cccc(F)c1`, the IC50 in assay [1] was determined as 2.12 µM; in assay [2], 1.93 µM; in assay [3], 4.39 µM; in assay [4] it was 5.33 µM; in assay [5], 2.41 µM.

With `O=C(/C=C/c1csc2ccccc12)c1cnccn1`, the IC50 came to 8.76 µM in assay [1]; 6.08 µM in assay [2]; 14.1 µM in assay [3]; 15.1 µM in assay [4]; 14 µM in assay [5].

As to `CCc1nccnc1C(=O)/C=C/c1ccc(-c2ccccc2)cc1`, the IC50 in assay [1] was determined as 9.14 µM; in assay [2] it was 22.6 µM; in assay [3] it was 16.9 µM; in assay [4] it was 16.4 µM; in assay [5] it was 9.55 µM.

As to `CCc1nccnc1C(=O)/C=C/c1ccc(F)cc1`, the IC50 was determined as 7.23 µM in assay [1]; 3.57 µM in assay [2]; 3.11 µM in assay [3]; 3.5 µM in assay [4]; 2.38 µM in assay [5].

`Cc1ccccc1/C=C/C(=O)c1cnccn1`: the IC50 in assay [1] stood at 15.7 µM; in assay [2], 15.2 µM; in assay [3], 31.2 µM; in assay [4] it was 33.7 µM; in assay [5] it was 23.6 µM.

On to `CC[C@@]1(O)C(=O)OCc2c1cc1n(c2=O)Cc2cc3ccccc3nc2-1` [CAMPTOTHECIN], for which the IC50 in assay [3] came out at 2.56 µM.

Broadly, the IC50 is the point on the concentration scale where inhibition reaches its midpoint.
